{"source": "patent US20240229156A1", "about": "“METHODS FOR USING A HYPOMETHYLATING AGENT TO TREAT DISEASES AND DISORDERS BASED ON GENE MUTATION PROFILES” (Celgene Corporation, priority 2021, published 2024)", "key": {"DNA methylation": {"system": "DNA methylation", "details": "clinical studies; cited from earlier work"}, "[1]": {"system": "patients with AML who were in first remission after intensive chemotherapy", "assay": "Phase 3 QUAZAR (CC0486-AML-001) trial of CC-486 maintenance: gene mutation, cytogenetic and MRD status correlated with OS and RFS", "type": "in vivo, human", "description": "The correlative analyses of gene mutations with clinical indices (overal survival (OS), relapse-free survival (RFS)) were performed in the CC0486-AML-001 study (the QUAZAR® study). […] In this clinical trial, the key enrollment criteria included newly diagnosed de novo or secondary AML patients, with either intermediate or poor risk (based on the 2012 National Comprehensive Cancer Network (NCCN) classification), were 55 years of age or older, who were in complete remission with or without complete blood count recovery. Patients were also those that were not candidates for hematopoietic stem-cell transplantation. See, ClinicalTrials.gov Identifier: NCT01757535, https://clinicaltrials.gov/ct2/show/NCT01757535, the entirety of which is incorporated herein by reference.\nThe primary end point was overall survival (OS). Secondary end points included relapse-free survival (RFS).\nBone marrow mononuclear cell (BMMC) DNA was isolated from patients at diagnoses (before consideration for study enrollment) and specific gene mutations (NPM1, FLT3 ITD, FLT3 TKD, CEBPA, MLL, P53, cKIT, NRAS) were determined by investigator report or retrospectively identified by central sequencing for available samples. Cytogenetic risk classification was performed according to the 2012 NCCN Guidelines (source: National Comprehensive Cancer Network Clinical Practice Guidelines in Oncology for Acute Myeloid Leukemia; available at https://www.nccn.org/professionals/physician_gls/PDF/aml.pdf); only intermediate- and poor-risk patients were eligible.\nAt screening (post-IC/C induction chemotherapy/consolidation, when patients achieved complete remission (CR) or CR with incomplete blood count recovery (CRi), gene mutations were identified by targeted next-generation sequencing (ArcherDX VariantPlex Core Myeloid panel; 37 genes, ArcherDX, Boulder, CO) of DNA isolated from BMMCs. Gene mutational analyses and variants reported were based on the sequence coverages of the 37-gene AML panel. Mutation variants were filtered. Karyotypes from post-IC/C bone marrow samples were determined by MLL (Munich Leukemia Laboratory, Munich, Germany). […] defined as three or more cytogenetic abnormalities in the absence of a WHO designated recurring translocation or inversion; i.e., t(8;21)(q22;q22.1); t(9;11)(p21.3;q23.3); inv(3)(q21.3q26.2) or t(3;3)(q21.3;q26.2); t(6;9)(p23;q34.1); t(v;11;q23.3).\nWhen applicable, statistical analyses were performed using Prism Software (v.8.0.0; GraphPad Software, San Diego, CA) or R statistical computing software environment (v3.6.3). OS and RFS were estimated using Kaplan-Meier methods and P values were calculated using the log-rank test. Cox regression analyses were performed to evaluate the association of gene mutation status and treatment arm with OS and RFS. Gene mutation frequencies and landscape were visualized. Correlative analyses including single gene mutation and co-mutational queries were performed with clinical response. All possible pairings between genes and/or cytogenetic alterations were evaluated for tendency to co-occur or for mutual exclusivity; i.e., a pair of alterations occurring together more frequently or rarely than expected by their individual frequencies, as described by Papaemmanuil et al. (N Engl J Med, 2016). 2×2 contingency tables were generated to test putative associations using Fisher's exact tests and adjusted to control for multiple hypothesis testing. Significant differences between groups were assessed using statistical methods listed in the corresponding Figure footnotes. P-values were considered statistically significant at *p≤0.05, **p≤0.01, or ***p≤0.001."}}, "note": "“And” between values parts separate entries of the source, which are not always exact repeats. Identical values can stand only once.", "data": [{"smiles": "Nc1ncn([C@@H]2O[C@H](CO)C(O)C2O)c(=O)n1", "note": "(stereo partly drawn) [CC-486, 4-amino-l-B-D-ribofuranosyl-1,3,5-triazin-2(1H)-one]", "values": [{"measurement": "demethylative effects as compared to VIDAZA", "setting": "DNA methylation", "result": "more sustainable demethylative effects"}, {"measurement": "median OS", "setting": "[1]; DNMT3A mutation postIC/C, FIG. 18A, placebo 13.0, p=0.0003", "result": 24.8, "unit": "months"}, {"measurement": "median RFS", "setting": "[1]; DNMT3A mutation postIC/C, FIG. 18B, placebo 4.7, p<0.0001", "result": 18.4, "unit": "months"}, {"measurement": "median OS", "setting": "[1]; FIG. 6B (RFS figure), NPM1 mutation at diagnosis, placebo 6.9, p=0.0098", "result": 23.2, "unit": "months"}, {"measurement": "median OS", "setting": "[1]; FIG. 9B (RFS figure), FLTITD/FLT3-TKD mutation, placebo 4.6, p=0.0475", "result": 23.1, "unit": "months"}, {"measurement": "median OS", "setting": "[1]; FIG. 10B (RFS figure), NPM1 mutation and FLTITD WT, placebo 7.8, p=0.0572", "result": 21.1, "unit": "months"}, {"measurement": "median OS", "setting": "[1]; FIG. 10F (RFS figure), NPM1 WT and FLTITD mutation, placebo 4.0, p=0.9446", "result": 4.5, "unit": "months"}, {"measurement": "median OS", "setting": "[1]; FLTITD/FLT3-TKD mutation NPM1 WT, FIG. 13B, placebo 8.7, p=0.4105", "result": 11.8, "unit": "months"}, {"measurement": "prolonged RFS, CC-486 vs placebo", "setting": "[1]; FLTITD/FLT3-TKD mutation NPM1 WT, FIG. 13D", "result": "no statistical significance"}, {"measurement": "median OS", "setting": "[1]; FLTITD/FLT3-TKD mutation at diagnosis, placebo 9.7, p=0.0797", "result": 28.2, "unit": "months"}, {"measurement": "median RFS", "setting": "[1]; FLTITD/FLT3-TKD wild type, placebo 4.9, p=0.0009", "result": 10.2, "unit": "months"}, {"measurement": "median OS", "setting": "[1]; FLTITD/FLT3-TKD wild type, placebo 15.2, p=0.0123", "result": 24.7, "unit": "months"}, {"measurement": "median OS", "setting": "[1]; NPM1 WT and FLTITD mutation, FIG. 10E, placebo 9.7, p=0.9207", "result": 9.2, "unit": "months"}, {"measurement": "median OS", "setting": "[1]; NPM1 mutation FLTITD WT, FIG. 10A, placebo 18.0, p=0.0802", "result": 47.1, "unit": "months"}, {"measurement": "median OS", "setting": "[1]; NPM1 mutation FLTITD/FLT3-TKD WT, FIG. 13A, placebo 20.2, p=0.0763", "result": 47.1, "unit": "months"}, {"measurement": "median RFS", "setting": "[1]; NPM1 mutation FLTITD/FLT3-TKD WT, FIG. 13C, placebo 7.7, p=0.0827", "result": 18.4, "unit": "months"}, {"measurement": "median OS", "setting": "[1]; NPM1 mutation FLTITD/FLT3-TKD mutation, FIG. 13A and 13B, placebo 13.4, p=0.0827", "result": 46.1, "unit": "months"}, {"measurement": "median RFS", "setting": "[1]; NPM1 mutation FLTITD/FLT3-TKD mutation, FIG. 13C and 13D, placebo 4.9, p=0.0278", "result": 46.1, "unit": "months"}, {"measurement": "median OS", "setting": "[1]; NPM1 mutation and FLTITD mutation, FIG. 10C, placebo 11.5, p=0.0488", "result": 49.3, "unit": "months"}, {"measurement": "median RFS", "setting": "[1]; NPM1 mutation and FLTITD mutation, FIG. 10D, placebo 4.6, p=0.0368", "result": 10.2, "unit": "months"}, {"measurement": "median OS", "setting": "[1]; NPM1 mutation and MRD negative status, FIG. 6C", "result": 47.2, "unit": "months"}, {"measurement": "median OS", "setting": "[1]; NPM1 mutation and MRD positive status, FIG. 6C", "result": 32.7, "unit": "months"}, {"measurement": "median RFS", "setting": "[1]; NPM1 mutation at diagnosis, FIG. 5C, vs NPM1 wild type p<0.0001", "result": 23.23, "unit": "months"}, {"measurement": "median OS", "setting": "[1]; NPM1 mutation at diagnosis, placebo 15.9, p=0.0138, vs NPM1 wild type p=0.0006", "result": "46.09 months and 46.1 months"}, {"measurement": "median OS", "setting": "[1]; NPM1 wild type and MRD negative, FIG. 6C", "result": 24.6, "unit": "months"}, {"measurement": "median OS", "setting": "[1]; NPM1 wild type and MRD positive status, FIG. 6C", "result": 13.8, "unit": "months"}, {"measurement": "median RFS", "setting": "[1]; NPM1 wild type at diagnosis, placebo 4.6, p=0.0029", "result": "7.688 months and 7.7 months"}, {"measurement": "median OS", "setting": "[1]; NPM1 wild type at diagnosis, placebo 14.6, p=0.0365", "result": "19.58 months and 19.6 months"}, {"measurement": "OS, CC-486 versus placebo", "setting": "[1]; WT DNMT3A postIC/C", "result": "No differences"}, {"measurement": "RFS, CC-486 versus placebo", "setting": "[1]; WT DNMT3A postIC/C", "result": "No differences"}, {"measurement": "OS, CC-486 versus placebo", "setting": "[1]; WT p53 postIC/C", "result": "increases"}, {"measurement": "RFS, CC-486 versus placebo", "setting": "[1]; WT p53 postIC/C", "result": "increases"}, {"measurement": "OS, CC-486 versus placebo", "setting": "[1]; abnormal karyotype (>1 abnormality) postIC/C, FIG. 17C", "result": "no statistically significant differences"}, {"measurement": "RFS, CC-486 versus placebo", "setting": "[1]; abnormal karyotype (>1 abnormality) postIC/C, FIG. 17D", "result": "no statistically significant differences"}, {"measurement": "median RFS", "setting": "[1]; complex karyotype (≥4 abnormalities) postIC/C, vs normal karyotype p<0.0001", "result": 1.906, "unit": "months"}, {"measurement": "median OS", "setting": "[1]; complex karyotype (≥4 abnormalities) postIC/C, vs normal karyotype p=0.0003", "result": 6.932, "unit": "months"}, {"measurement": "median OS", "setting": "[1]; de novo AML, FIG. 1A, placebo 14.55, p=0.0068", "result": 23.23, "unit": "months"}, {"measurement": "median RFS", "setting": "[1]; de novo AML, FIG. 1B, placebo 4.90, p=0.0002", "result": 10.15, "unit": "months"}, {"measurement": "median RFS", "setting": "[1]; intermediate cytogenetic risk at diagnosis, placebo 5.8, p=0.0004", "result": 11, "unit": "months"}, {"measurement": "median OS", "setting": "[1]; intermediate cytogenetic risk at diagnosis, placebo 16, p=0.0093", "result": 25, "unit": "months"}, {"measurement": "RFS, CC-486 versus placebo", "setting": "[1]; mutations in SRSF2 alone postIC/C, FIG. 21A, p=0.0809", "result": "trend for improved RFS"}, {"measurement": "median OS", "setting": "[1]; normal karyotype (no abnormalities) postIC/C, placebo 14.95, p=0.004, vs complex karyotype p=0.0003", "result": "25.10 months and 25.1 months"}, {"measurement": "median RFS", "setting": "[1]; normal karyotype postIC/C, placebo 4.895, p<0.0001, vs complex karyotype p<0.0001", "result": 10.97, "unit": "months"}, {"measurement": "median OS", "setting": "[1]; other patients (lack NPM1 mutation in combination with FLTITD WT), FIG. 10A, placebo 14.6, p=0.0119", "result": 20.2, "unit": "months"}, {"measurement": "median RFS", "setting": "[1]; other patients, FIG. 10B, placebo 4.6, p=0.0006", "result": 7.9, "unit": "months"}, {"measurement": "median OS", "setting": "[1]; other patients, FIG. 10C, placebo 14.9, p=0.0080", "result": 24.7, "unit": "months"}, {"measurement": "median RFS", "setting": "[1]; other patients, FIG. 10D, placebo 4.1, p=0.0008", "result": 10.2, "unit": "months"}, {"measurement": "median OS", "setting": "[1]; other patients, FIG. 10E, placebo 14.9, p=0.0020", "result": 25.0, "unit": "months"}, {"measurement": "median RFS", "setting": "[1]; other patients, FIG. 10F, placebo 4.9, p<0.0001", "result": 10.2, "unit": "months"}, {"measurement": "OS, CC-486 versus placebo", "setting": "[1]; p53 mutation postIC/C, FIG. 18C", "result": "no statistically significant differences"}, {"measurement": "median RFS", "setting": "[1]; p53 mutation postIC/C, FIG. 18D, placebo 3.5, p=0.0579", "result": 7.4, "unit": "months"}, {"measurement": "differences in median OS or median RFS, normal versus abnormal karyotype", "setting": "[1]; patients treated with CC-486, abnormal karyotype (1-3 abnormalities), FIG. 16", "result": "statistically significant differences"}, {"measurement": "median RFS", "setting": "[1]; poor cytogenetic risk at diagnosis, placebo 3.7, p=0.0776", "result": 4.6, "unit": "months"}, {"measurement": "median OS", "setting": "[1]; poor cytogenetic risk at diagnosis, placebo 7.4, p=0.0602", "result": 14, "unit": "months"}, {"measurement": "median OS", "setting": "[1]; secondary AML, FIG. 1A, placebo 15.67, p=0.1072", "result": 28.19, "unit": "months"}, {"measurement": "median RFS", "setting": "[1]; secondary AML, FIG. 1B, placebo 2.45, p=0.0118", "result": 4.67, "unit": "months"}]}]}
